Source: US5744449A (priority 1996, dated 1998)
Ends that are not written are not given here.

Key:
[1] = system: C. atrox venom; settings: in vivo
[2] = system: N. n. kaouthia venom; settings: in vivo
[3] = system: V. russellii venom; settings: in vivo
[4] = system: O. s. scutellatus venom; settings: in vivo
[5] = system: Sea snake venom; settings: in vivo
[6] = system: venoms and their lethal toxins; design: species or system mice; settings: mouse

LKAMDPTPPLWIKTE [LTNF-15]
neutralized in vivo: neutralization of venoms and their lethal toxins in vivo [6]
0/3: Death/Survival Group II (LTNF Immediately) [1] | Death/Survival Group III (LTNF 1/2 hr before) [1] | Death/Survival Group II (LTNF Immediately) [2] | Death/Survival Group III (LTNF 1/2 hr before) [2] | Death/Survival Group II (LTNF Immediately) [3] | Death/Survival Group III (LTNF 1/2 hr before) [3] | Death/Survival Group II (LTNF Immediately) [4] | Death/Survival Group III (LTNF 1/2 hr before) [4] | Death/Survival Group II (LTNF Immediately) [5] | Death/Survival Group III (LTNF 1/2 hr before) [5]
